Values joined by “and” are separate entries in the source; they are usually repeats but may differ in a detail not shown here. Identical values can stand only once. Inconclusive results and toxic doses are left out. How the source made its calls: active means survival T/C of 150% or more; inactive means T/C below 125% in these data.
Test system: P388 leukemia ip, CD2F1 mice, survival T/C
Experiment: NCI In Vivo Anticancer Drug Screen. Data for tumor model P388 Leukemia (intraperitoneal) in CD2F1 (CDF1) mice
Conditions: endpoint: median survival time, higher = longer survival
Outline: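 Mice carrying the transplanted tumor received test compound or vehicle. Survival was recorded in each group, and the value is the treated-group measurement divided by that of the vehicle-treated control group.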

Measured: T/C

CC1C(=O)OC2CC[N+]3(C(=O)C(F)(F)F)CC4OC4(COC(=O)C(C)(O)C1(C)O)C23 (stereo unspecified)
inactive: dose: 60.0 mg/kg/injection, schedule: Q01DX005 (ip), vehicle: suspension in saline 104 % of control | dose: 120.0 mg/kg/injection, schedule: Q01DX005 (ip), vehicle: suspension in saline 93 % of control | dose: 240.0 mg/kg/injection, schedule: Q01DX005 (ip), vehicle: suspension in saline 92 % of control

NCCc1c[nH]c2ccc(O)cc12 (tested in a mixture with another compound)
inactive: dose: 50.0 mg/kg/injection, schedule: Q01DX009 (ip), vehicle: other 113 % of control | dose: 60.0 mg/kg/injection, schedule: Q01DX005 (ip), vehicle: saline 102 % of control | dose: 100.0 mg/kg/injection, schedule: Q01DX009 (ip), vehicle: other 109 % of control | dose: 120.0 mg/kg/injection, schedule: Q01DX005 (ip), vehicle: saline 100 % of control | dose: 200.0 mg/kg/injection, schedule: Q01DX009 (ip), vehicle: other 91 % of control | dose: 240.0 mg/kg/injection, schedule: Q01DX005 (ip), vehicle: saline 99 % of control

CCOC(=O)CCC1(C(=O)OC)C(=O)CCCCCCCC1C(=O)OC (stereo unspecified)
inactive: dose: 50.0 mg/kg/injection, schedule: Q01DX005 (ip), vehicle: saline with Tween-80 101 % of control | dose: 100.0 mg/kg/injection, schedule: Q01DX005 (ip), vehicle: saline with Tween-80 98 % of control | dose: 200.0 mg/kg/injection, schedule: Q01DX005 (ip), vehicle: saline with Tween-80 94 % of control

Cc1c2cc(Cl)c3ccccc3c2c[n+]2ccccc12
inactive: dose: 16.5 mg/kg/injection, schedule: Q01DX009 (ip), vehicle: saline 111 % of control | dose: 25.0 mg/kg/injection, schedule: Q01DX009 (ip), vehicle: saline 121 % of control | dose: 37.5 mg/kg/injection, schedule: Q01DX009 (ip), vehicle: saline 124 % of control | dose: 50.0 mg/kg/injection, schedule: Q04DX003 (ip), vehicle: saline with Tween-80 113 % of control | dose: 100.0 mg/kg/injection, schedule: Q04DX003 (ip), vehicle: saline with Tween-80 121 % of control and 123 % of control | dose: 200.0 mg/kg/injection, schedule: Q04DX003 (ip), vehicle: saline with Tween-80 92 % of control | dose: 400.0 mg/kg/injection, schedule: Q04DX003 (ip), vehicle: saline with Tween-80 108 % of control

O=P(N1CCCC1)(N1CCCC1)N1CCCC1
inactive: dose: 50.0 mg/kg/injection, schedule: Q01DX009 (ip), vehicle: saline 100 % of control | dose: 100.0 mg/kg/injection, schedule: Q01DX009 (ip), vehicle: saline 102 % of control and 107 % of control | dose: 200.0 mg/kg/injection, schedule: Q01DX009 (ip), vehicle: saline 101 % of control | dose: 400.0 mg/kg/injection, schedule: Q01DX009 (ip), vehicle: saline 103 % of control

OC1CC2CC1C1C3C=CC(C3)C21 (stereo unspecified)
inactive: dose: 6.25 mg/kg/injection, schedule: Q01DX009 (ip), vehicle: saline with Tween-80 104 % of control | dose: 12.5 mg/kg/injection, schedule: Q01DX009 (ip), vehicle: saline with Tween-80 102 % of control | dose: 25.0 mg/kg/injection, schedule: Q01DX009 (ip), vehicle: saline with Tween-80 102 % of control

CCCCCCCCCCNCCSSCc1ccccc1
inactive: dose: 12.5 mg/kg/injection, schedule: Q04DX002 (ip), vehicle: Klucel (hydroxypropylcellulose) (HPC) 100 % of control | dose: 25.0 mg/kg/injection, schedule: Q04DX002 (ip), vehicle: Klucel (hydroxypropylcellulose) (HPC) 100 % of control | dose: 50.0 mg/kg/injection, schedule: Q04DX002 (ip), vehicle: Klucel (hydroxypropylcellulose) (HPC) 109 % of control | dose: 100.0 mg/kg/injection, schedule: Q04DX002 (ip), vehicle: Klucel (hydroxypropylcellulose) (HPC) 105 % of control

Oc1cc2c(cc1C(c1ccc(F)cc1)N1CCOCC1)OCO2 (stereo unspecified)
inactive: dose: 60.0 mg/kg/injection, schedule: Q01DX005 (ip), vehicle: saline with Tween-80 117 % of control | dose: 120.0 mg/kg/injection, schedule: Q01DX005 (ip), vehicle: saline with Tween-80 102 % of control | dose: 240.0 mg/kg/injection, schedule: Q01DX005 (ip), vehicle: saline with Tween-80 108 % of control

NC(=O)Cc1[nH]ccc1C(=O)O
inactive: dose: 100.0 mg/kg/injection, schedule: Q01DX001 (ip), vehicle: saline with Tween-80 103 % of control | dose: 200.0 mg/kg/injection, schedule: Q01DX001 (ip), vehicle: saline with Tween-80 97 % of control | dose: 400.0 mg/kg/injection, schedule: Q01DX001 (ip), vehicle: saline with Tween-80 97 % of control

Nc1ncnc2c1ncn2C1SC(CO)C(O)C1O (stereo unspecified)
inactive: dose: 12.5 mg/kg/injection, schedule: Q01DX005 (ip), vehicle: Klucel (hydroxypropylcellulose) (HPC) 92 % of control | dose: 25.0 mg/kg/injection, schedule: Q01DX005 (ip), vehicle: Klucel (hydroxypropylcellulose) (HPC) 100 % of control and 92 % of control | dose: 50.0 mg/kg/injection, schedule: Q01DX005 (ip), vehicle: Klucel (hydroxypropylcellulose) (HPC) 99 % of control and 96 % of control | dose: 100.0 mg/kg/injection, schedule: Q01DX005 (ip), vehicle: Klucel (hydroxypropylcellulose) (HPC) 104 % of control and 100 % of control | dose: 200.0 mg/kg/injection, schedule: Q01DX005 (ip), vehicle: Klucel (hydroxypropylcellulose) (HPC) 101 % of control and 92 % of control

Source: PubChem BioAssay AID330 (DTP/NCI, 2004)
